Where “and” joins values, the source holds several entries; their conditions need not be identical. Equal entries are not always repeated.
Assay: Tissue distribution by quantitative whole-body autoradiography (QWBA)
Type: in vivo, male Sprague Dawley and Long-Evans rats
Settings: for Concentration of radioactivity: SD rat
Procedure: The study utilized 4 groups of male SD rats (albino), and 3 groups of male LE rats (pigmented); a total of 39 rats. All animals were obtained from Hilltop Lab Animals, Inc. (Scottdale, Pa.). […] Rats in Group 5 were administered a single 2-h IV infusion of [^14C]brincidofovir at a target dose of 2 mg/kg. […] Three dosing formulations (one for high dose IV, one for low dose IV, and one for PO dose) were prepared at QPS on the day of dosing. The IV formulation for Groups 1, 2, 3, and 4 contained a vehicle of 10 mM sodium phosphate buffer in 5% dextrose solution at pH 8.0(±0.1).
Each animal, at their respective termination time points, was euthanized for QWBA analysis immediately after blood collection. One rat per time point per Group was euthanized as listed below.
The blood samples were maintained on wet ice (approximately 4° C.) and then centrifuged to obtain plasma within 1 h of the blood collection time. Centrifuge settings were recorded in the study notebook. Duplicate aliquots of plasma (0.050 mL) were analyzed for radioactivity using direct counting by LSC, and residual plasma was stored at approximately −70° C. and was saved for possible future analysis under a separate study protocol. Residual red blood cells were discarded as radioactive waste.
The pinna, distal limbs, hair, and tail were removed from each frozen carcass and each frozen carcass was embedded in an aqueous suspension of approximately 2% (w/v) carboxymethylcellulose and frozen into a block. The blocks were stored at approximately −20° C. prior to sectioning. Each blocked carcass was mounted on the object stage of a cryomicrotome (Leica CM3600 Cryomacrocut, Nussloch, Germany and Vibratome 9800, St. Louis, Mo.) maintained at approximately −20° C. and internal standards (3), which were plasma fortified with [^14C]-glucose at one concentration (approximately 0.05 μCi/mL), were placed into the frozen blocks, prior to sectioning, and were used for section thickness quality control. A number of whole-body sections (approximately 40 μm thick) were taken in the sagittal plane at various levels of interest using a whole-body cryomicrotome set at −20° C. Sagittal sections (20-50 μm thick) of frozen carcasses were exposed to phosphor imaging plates. Regions of images in tissues were converted to concentrations using standards. All of the major tissues, organs, and biological fluids were represented.
Tissue concentration data was determined for the following tissues and/or contents: adipose (brown and white), adrenal gland, bile (in duct), blood (cardiac), bone, bone marrow, brain (cerebrum, cerebellum, medulla), cecum (and contents), large intestine (and contents), epididymis, esophagus, eye (uvea and lens), Harderian gland, heart, kidney (cortex and medulla), liver, lung, lymph node, pancreas, pituitary gland, prostate gland, salivary gland, seminal vesicles, skeletal muscle, skin (pigmented and non-pigmented), small intestine (and contents), stomach (gastric mucosa and contents), spleen, spinal cord, testis, thymus, thyroid, and urinary bladder (and contents).
The imaging plate and sections were placed in light-tight exposure cassettes, in a copper-lined lead safe, for a 4-day exposure at room temperature. […] Quantification was performed by image densitometry using MCD image analysis software (v. 7.0, Interfocus Imaging Ltd) and a standard curve constructed from the integrated response [i.e., Molecular Dynamics Counts per square millimeter (MDC/mm^2)] and the nominal concentrations of the ^14C-calibration standards. The concentrations of radioactivity were expressed as the μg equivalents of [^14C]brincidofovir per gram sample (μg equiv/g). A lower limit of quantification (LLOQ) was applied to the data (See section 6.7.4).
Tissue concentrations that fell below the LLOQ were identified as being below the quantification limit (BQL). Tissue areas that were not visualized on autoradiographic images were identified as no sample (NS) and reported as BQL.

[1] = Group 6 SD albino rats, oral 15 mg/kg, c2 2 h, c3 24 h, c4 168 h, LLOQ 0.034

CCCCCCCCCCCCCCCCOCCCOP(=O)(O)CO[C@H](CO)Cn1ccc(N)nc1=O [[^14C]brincidofovir]
Bile Cmax, IV relative to oral (15 mg/kg): 14 times
Small intestinal tissue concentration, IV relative to oral (15 mg/kg): approximately 1/10
Small intestine Cmax, oral compared to IV (15 mg/kg): 6 fold
Tissue t1/2: adrenal gland (15 mg/kg 2-h IV): 254 h
Tissue t1/2: blood (cardiac) (15 mg/kg 2-h IV): 14.2 h
Tissue t1/2: bone marrow (15 mg/kg 2-h IV): 276 h
Tissue t1/2: lymph node (15 mg/kg 2-h IV): 345 h
Tissue t1/2: skin non-pigmented (15 mg/kg 2-h IV): 310 h
Tissue t1/2: spleen (15 mg/kg 2-h IV): 378 h
Tissue t1/2: adipose (brown) (15 mg/kg PO): 234 h
Tissue t1/2: esophagus (15 mg/kg PO): 37.2 h
Tissue t1/2: lung (15 mg/kg PO): 93 h
Tissue t1/2: pituitary gland (15 mg/kg PO): 106 h
Tissue t1/2: small intestine (15 mg/kg PO): 98.1 h
Tissue t1/2: spleen (15 mg/kg PO): 115 h
Concentration of radioactivity (Adipose (brown), 2 h, 15 mg/kg IV): 2.088 μg equiv./g
Concentration of radioactivity (Adipose (brown), 24 h, 15 mg/kg IV): 0.473 μg equiv./g
Concentration of radioactivity (Adipose (brown), 168 h, 15 mg/kg IV): 0.391 μg equiv./g
Concentration of radioactivity (Adipose (white), 2 h, 15 mg/kg IV): 0.386 μg equiv./g
Concentration of radioactivity (Adipose (white), 24 h, 15 mg/kg IV): 0.135 μg equiv./g
Concentration of radioactivity (Adipose (white), 168 h, 15 mg/kg IV): BQL (BQL = Value is below the LLOQ)
Concentration of radioactivity (Adrenal Gland, 2 h, 15 mg/kg IV): 4.308 μg equiv./g
Concentration of radioactivity (Adrenal Gland, 24 h, 15 mg/kg IV): 1.680 μg equiv./g
Concentration of radioactivity (Adrenal Gland, 168 h, 15 mg/kg IV): 0.647 μg equiv./g
Concentration of radioactivity (Bile (in duct), 24 h, 15 mg/kg IV): 1.469 μg equiv./g
Concentration of radioactivity (Bile (in duct), 168 h, 15 mg/kg IV): 0.058 μg equiv./g
Concentration of radioactivity (Blood (cardiac), 2 h, 15 mg/kg IV): 6.865 μg equiv./g
Concentration of radioactivity (Blood (cardiac), 24 h, 15 mg/kg IV): 0.308 μg equiv./g
Concentration of radioactivity (Blood (cardiac), 168 h, 15 mg/kg IV): BQL (BQL = Value is below the LLOQ)
Concentration of radioactivity (Bone Marrow, 2 h, 15 mg/kg IV): 3.411 μg equiv./g
Concentration of radioactivity (Bone Marrow, 24 h, 15 mg/kg IV): 1.219 μg equiv./g
Concentration of radioactivity (Bone Marrow, 168 h, 15 mg/kg IV): 0.196 μg equiv./g
Concentration of radioactivity (Bone, 2 h, 15 mg/kg IV): 0.449 μg equiv./g
Concentration of radioactivity (Bone, 24 h, 15 mg/kg IV): 0.095 μg equiv./g
Concentration of radioactivity (Bone, 168 h, 15 mg/kg IV): BQL (BQL = Value is below the LLOQ)
Concentration of radioactivity (Brain (cerebellum), 2 h, 15 mg/kg IV): 0.907 μg equiv./g
Concentration of radioactivity (Brain (cerebellum), 24 h, 15 mg/kg IV): 0.161 μg equiv./g
Concentration of radioactivity (Brain (cerebellum), 168 h, 15 mg/kg IV): BQL (BQL = Value is below the LLOQ)
Concentration of radioactivity (Brain (cerebrum), 2 h, 15 mg/kg IV): 0.803 μg equiv./g
Concentration of radioactivity (Brain (cerebrum), 24 h, 15 mg/kg IV): 0.107 μg equiv./g
Concentration of radioactivity (Brain (cerebrum), 168 h, 15 mg/kg IV): BQL (BQL = Value is below the LLOQ)
Concentration of radioactivity (Brain (medulla), 2 h, 15 mg/kg IV): 0.864 μg equiv./g
Concentration of radioactivity (Brain (medulla), 24 h, 15 mg/kg IV): 0.132 μg equiv./g
Concentration of radioactivity (Brain (medulla), 168 h, 15 mg/kg IV): BQL (BQL = Value is below the LLOQ)
Concentration of radioactivity (Cecum (contents), 2 h, 15 mg/kg IV): 0.085 μg equiv./g
Concentration of radioactivity (Cecum (contents), 24 h, 15 mg/kg IV): 58.016 μg equiv./g
Concentration of radioactivity (Cecum, 2 h, 15 mg/kg IV): 3.658 μg equiv./g
Concentration of radioactivity (Cecum, 24 h, 15 mg/kg IV): 5.981 μg equiv./g
Concentration of radioactivity (Cecum, 168 h, 15 mg/kg IV): 0.099 μg equiv./g
Concentration of radioactivity (Epididymis, 2 h, 15 mg/kg IV): 2.391 μg equiv./g
Concentration of radioactivity (Epididymis, 24 h, 15 mg/kg IV): 0.566 μg equiv./g
Concentration of radioactivity (Epididymis, 168 h, 15 mg/kg IV): 0.234 μg equiv./g
Concentration, Seminal Vesicles (G4 15 mg/kg IV, c3 2 h, c6 8 h, c9 24 h, c12 72 h): 1.374 μg equiv/g tissue and 1.834 μg equiv/g tissue and 1.717 μg equiv/g tissue and 1.127 μg equiv/g tissue
Concentration, Eye (lens) (G5 2 mg/kg IV, c2 2 h, c5 8 h, c8 24 h, c11 72 h, LLOQ 0.005): BQL
Urinary bladder contents (Group 3, 2 h): 47.0 μg equiv/g
Concentration at Tmax: kidney cortex (Group 3 SD, 15 mg/kg 2-h IV): 106.5 μg equiv/g
Concentration at Tmax: kidney medulla (Group 3 SD, 15 mg/kg 2-h IV): 33.4 μg equiv/g
Concentration at Tmax: liver (Group 3 SD, 15 mg/kg 2-h IV): 229.4 μg equiv/g
Concentration at Tmax: small intestine (Group 3 SD, 15 mg/kg 2-h IV): 43.7 μg equiv/g
Concentration at Tmax: urinary bladder (Group 3 SD, 15 mg/kg 2-h IV): 36.0 μg equiv/g
Highest observed concentration in blood (Group 3 SD, 15 mg/kg IV, 2 h): 6.9 μg equiv/g
Concentration in spleen at 840 h post-dose (Group 4, 15 mg/kg IV): 0.270 μg equiv/g
Urinary bladder contents (Group 4, 4 h): 814.4 μg equiv/g
Concentration at Tmax: kidney cortex (Group 4 LE, 15 mg/kg 2-h IV): 97.3 μg equiv/g
Concentration at Tmax: kidney medulla (Group 4 LE, 15 mg/kg 2-h IV): 27.0 μg equiv/g
Concentration at Tmax: liver (Group 4 LE, 15 mg/kg 2-h IV): 229.7 μg equiv/g
Concentration at Tmax: small intestine (Group 4 LE, 15 mg/kg 2-h IV): 71.0 μg equiv/g
Concentration at Tmax: urinary bladder (Group 4 LE, 15 mg/kg 2-h IV): 22.8 μg equiv/g
Highest observed concentration in blood (Group 4 LE, 15 mg/kg IV, 2 h): 5.3 μg equiv/g
Bile (Group 5, 2 h): 32.7 μg equiv/g
Urinary bladder contents (Group 5, 2 h): 22.9 μg equiv/g
Concentration at Tmax: kidney cortex (Group 5 LE, 2 mg/kg 2-h IV): 11.0 μg equiv/g
Concentration at Tmax: kidney medulla (Group 5 LE, 2 mg/kg 2-h IV): 3.4 μg equiv/g
Concentration at Tmax: large intestine (Group 5 LE, 2 mg/kg 2-h IV): 1.0 μg equiv/g
Concentration at Tmax: liver (Group 5 LE, 2 mg/kg 2-h IV): 34.2 μg equiv/g
Concentration at Tmax: small intestine (Group 5 LE, 2 mg/kg 2-h IV): 2.5 μg equiv/g
Highest observed concentration in blood (Group 5 LE, 2 mg/kg IV, 2 h): 0.771 μg equiv/g
Bile (Group 6, 2 h): 9.7 μg equiv/g
Urinary bladder contents (Group 6, 24 h): 39.9 μg equiv/g
Concentration of radioactivity, Brain (cerebrum) [1]: BQL
Concentration of radioactivity, Brain (medulla) [1]: BQL
Concentration of radioactivity, Eye (lens) [1]: BQL
Concentration of radioactivity, Spinal Cord [1]: BQL
Concentration of radioactivity, Epididymis (Group 6 SD albino rats, oral 15 mg/kg, c2 2 h, c3 24 h, c4 168 h, LLOQ 0.034, 15 mg/kg): 0.073 μg equiv./g and 0.091 μg equiv./g and 0.075 μg equiv./g
Concentration at Tmax: cecum (Group 6 SD, 15 mg/kg PO): 7.5 μg equiv/g
Concentration at Tmax: kidney cortex (Group 6 SD, 15 mg/kg PO): 18.4 μg equiv/g
